From patent publication EP0111809A1, “Pyrazolo(4.3-b)(1.4)oxazines, processes for their preparation and their use as medicaments” (Troponwerke GmbH & Co. KG, priority 1982, dated 1984)

Legend:
Carrageenanödembildung = experiment: Carrageenan-induced oedema model, oral administration; type: in vivo; settings: Hemmung der Carrageenanödembildung nach oraler Gabe
Excerpt: Die erfindungsgemäßen Verbindungen sind auch in-vivo wirksam. Diese Wirkung wird durch die Messung der Hemmung der Leukozytenmigration nach an sich bekannten Methoden nachgewiesen (vgl. Higgs et al., Biochemical Pharmacology 28, 1959, (1979) und Eur. J. Pharmacol. 66,81 (1981)). Die erfindungsgemäßen Verbindungen reduzieren auch die ödembildung im Carrageenan-Entzündungsmodell, (vgl. Tabelle C) und hemmen die Metastasierung von B-16 Melanom (nach Honn, et.al. Science 212, 1981).

Hyperalgesie = experiment: Randall-Selitto hyperalgesia test, oral administration; type: in vivo; settings: Hemmung der Hyperalgesie nach Randall-Selitto nach oraler Gabe
Excerpt: Die erfindungsgemäßen Verbindungen sind auch in vivo wirksam im Hyperalgesie-Test nach Randall-Selitto, vgl. Tabelle B (Randall, L.O., Selitto, J., Arch. Int. Pharmakodyn, 111, 209-219, 1957).

[1] = system: Lipoxygenase in PMN-Leukozyten; experiment: Inhibition of lipoxygenase in PMN leukocytes (release of 5-HETE); type: cell-based; settings: species (human or rabbit) not given
Excerpt: Der Nachweis der lipoxygenasehemmenden Eigenschaften der neuen, erfindungsgemäßen Verbindungen erfolgt analog der Methode von Bailey et al., J. Biol. Chem. 255, 5996, 1980 und nach Blackwell and Flower, Prostaglandins 16, 417, 1978. Bei dieser Testmethode wird der Metabolismus radioaktiv markierter Arachidonsäure an gewaschenen Humanthrombozyten untersucht. Bei diesem in-vitro-Test werden die radioaktiv markierten Metaboliten aus dem Reaktionsansatz extrahiert und dünnschichtchromatographisch getrennt. Das Autoradiogramm wird mit Dünnschichtscanner ausgewertet. Bei diesen Testbedingungen werden die markierten Metaboliten von der nicht umgesetzten Arachidonsäure getrennt und sind anschließend auszuwerten. Die Verteilung der Radioaktivität auf die während der Metabolisierung gebildeten Cyclooxygenaseprodukte Thromboxan B2 (TXB2) und 12-Hydroxy-5.8.10-heptadekatriensäure (HHT) bzw. das Lipoxygenaseprodukt 12-Hydroxy-5.8.11.14-eikosa- tetraensäure (HETE) unter dem Einfluß der Inhibitoren stellt ein Maß für die Hemmung der Enzyme dar.
Analog dem o.a. Test lassen sich die lipoxygenasehemmenden Eigenschaften der neuen, erfindungsgemäßen Verbindungen auch an Leukozyten nachweisen. Die polymorphkernigen Leukozyten des Menschen und des Kaninchens metabolisieren die Arachidonsäure zu 5-Hydroxy-5.8.11.14-eikosatetraensäure (5-HETE) und Leukotrien B4 (5S, 12R-Dihydroxy-6 cis, 8.10 trans, 14 ciseikosatetraensäure). Die Hemmung der Freisetzung von 5-HETE und Leukotrien B4 aus den Leukozyten stellt ein Maß für den lipoxygenasehemmenden Effekt der neuen, erfindungsgemäßen Verbindungen dar (vgl. Tabelle A).
Der Test mit den Humanleukozyten wird nach Borgeat and Samuelsson (J.Biol. Chem. 254, 2643, 1979 und Proc. Natl. Acad. Sci. U.S.A. 76, 2148, 1979), mit Kaninchenleukozyten nach Walker and Parish (Intern. Archs. Allergy Appl. Immun. 66, 83, 1981) durchgeführt.

Minimale Konzentration (mol/l) für die Hemmung der Lipoxygenase in PMN-Leukozyten (5-HETE) [1] | Compound | DE50[mg/kg], oral (Carrageenanödembildung) | DE50[mg/kg], oral (Hyperalgesie)
10^-5 mol/l | Cc1n[nH]c2c1OC(c1ccccc1)=C(c1ccccc1)N2C [Beispiel 4, 3,7-Dimethyl-5,6-diphenylpyrazolo[4.3-b][1.4]oxazin] | 11,3 mg/kg | 7,7 mg/kg
5 . 10^-6 mol/l | CC(=O)n1nc(C)c2c1N(C)C(c1ccccc1)=C(c1ccccc1)O2 [Beispiel 6, 1-Acetyl-3,7-dimethyl-5.6-diphenylpyrazolo[4.3-b][1.4]-oxazin] | 2,5 mg/kg | 
> 10^-5 mol/l | CCCc1n[nH]c2c1OC(c1ccccc1)=C(c1ccccc1)N2C [Beispiel 5, 7-Methyl-3-propyl-5,6-diphenylpyrazolo[4.3-b][1.4]oxazin] | 14,2 mg/kg | 

The next lines start with the compound.

Compound | Minimale Konzentration (mol/l) für die Hemmung der Lipoxygenase in PMN-Leukozyten (5-HETE) [1] | DE50[mg/kg], oral (Carrageenanödembildung) | DE50[mg/kg], oral (Hyperalgesie)
CC(C)c1n[nH]c2c1OC(c1ccccc1)C(c1ccccc1)N2C (centres unmarked) [compound 7] | 5 . 10^-6 mol/l |  | 
2-Methyl-5-phenylpyrazolo[4.3-b][1.4]oxazin [Beispiel 2] | 5 . 10^-6 mol/l | 10,3 mg/kg | 0,80 mg/kg
CN1c2[nH]ncc2O[C@@H](c2ccccc2)[C@H]1c1ccccc1 (relative stereo) [Beispiel 3, cis-7-Methyl-5,6-diphenylpyrazolo[4.3-b][1.4]oxazin] | 5 . 10^-6 mol/l | 12,7 mg/kg | 1,23 mg/kg
CN1CC(c2ccccc2)Oc2cn(C)nc21 (centres unmarked) [compound 9] | 10^-5 mol/l |  | 
CN1CCOc2cn(Cc3ccc(Cl)c(Cl)c3)nc21 [compound 8] | 10^-5 mol/l |  | 
CN1C=COc2cn[nH]c21 [Beispiel 1, 7-Methylpyrazolo[4.3-b][1.4]oxazin] | > 10^-5 mol/l | 13,3 mg/kg | 19,7 mg/kg
CN1c2[nH]ncc2OC(c2ccccc2)C1c1ccccc1 (centres unmarked) [compound 10] | 5.10^-6 mol/l |  | 
